Measured values published in patent US20110301211A1, “ANTAGONISTS OF LYSOPHOSPHATIDIC ACID RECEPTORS” (priority 2008, published 2011).
Values belong to the molecule of their own block, whether it stands above or below them.

Tests used:
[1] = target: T1, human LPA3 (Homo sapiens, UniProt Q9UBY5); experiment: HLPA3 Ca Flux assay (LPA3 calcium flux assay); assay type: cell-based; conditions: CHO cells expressing human LPA3, 10 nM LPA
T1 construct: The full-length cDNA fragment for human LPA3 was obtained by PCR from the vector
T1 sequence (Q9UBY5 1-353): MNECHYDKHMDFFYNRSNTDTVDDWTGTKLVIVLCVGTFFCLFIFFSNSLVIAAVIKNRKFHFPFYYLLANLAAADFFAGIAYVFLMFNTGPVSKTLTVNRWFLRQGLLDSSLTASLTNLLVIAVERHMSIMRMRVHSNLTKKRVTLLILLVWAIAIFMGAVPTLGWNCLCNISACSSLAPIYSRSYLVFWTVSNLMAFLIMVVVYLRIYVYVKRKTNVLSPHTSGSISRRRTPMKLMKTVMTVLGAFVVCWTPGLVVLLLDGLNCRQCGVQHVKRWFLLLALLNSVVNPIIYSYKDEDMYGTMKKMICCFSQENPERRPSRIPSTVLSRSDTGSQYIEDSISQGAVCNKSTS
Experimental: A vector containing the human LPA3 receptor cDNA was obtained from the Missouri S&T cDNA Resource Center (www.cdna.org). The full-length cDNA fragment for human LPA3 was obtained by PCR from the vector. The nucleotide sequence of the cloned human LPA3 was determined by sequencing and confirmed to be identical to the published human LPA3 sequence (NCBI accession number NM 012152). The cDNA was cloned into the pcDNA5/FRT expression plasmid and transfected in CHO cells using lipofectamine 2000 (Invitrogen Corp., USA). Clones stably expressing human LPA3 were selected using hygromycin and identified as cells that show Ca-influx in response to LPA.
Human LPA1 or LPA3 expressing CHO cells are seeded at 20,000-45,000 cells per well in a 96-well poly-D-lysine coated plate one or two days before the assay. Prior to the assay, the cells are washed once with PBS and then cultured in serum-free media overnight. On the day of the assay, a calcium indicator dye (Calcium 4, Molecular Devices) in assay buffer (HBSS with Ca^2+ and Mg^2+ and containing 20 mM Hepes and 0.3% fatty-acid free human serum albumin) is added to each well and incubation continued for 1 hour at 37° C. […] Cells are the stimulated by the addition of 10 nM LPA and intracellular Ca^2+ measured using the Flexstation 3 (Molecular Devices). IC50s are determined using Graphpad prism analysis of drug titration curves.

[2] = target: T2, human LPA1 (Homo sapiens, UniProt Q92633); experiment: HLPA1 Ca Flux assay (LPA1 calcium flux assay); assay type: cell-based; conditions: CHO cells expressing human LPA1, 10 nM LPA
T2 construct: the full-length cDNA for human LPA1 was obtained by PCR of the reverse transcription reaction; expressed in transfected cells
Experimental: A 1.1 kb cDNA encoding the human LPA1 receptor was cloned from human lung. Human lung RNA (Clontech Laboratories, Inc. USA) was reverse transcribed using the RETROscript kit (Ambion, Inc.) and the full-length cDNA for human LPA1 was obtained by PCR of the reverse transcription reaction. The nucleotide sequence of the cloned human LPA1 was determined by sequencing and confirmed to be identical to the published human LPA1 sequence (An et al. Biochem. Biophys. Res. Commun. 231:619 (1997). The cDNA was cloned into the pcDNA5/FRT expression plasmid and transfected in CHO cells using lipofectamine 2000 (Invitrogen Corp., USA). Clones stably expressing human LPA1 were selected using hygromycin and identified as cells that show Ca-influx in response to LPA.
Human LPA1 or LPA3 expressing CHO cells are seeded at 20,000-45,000 cells per well in a 96-well poly-D-lysine coated plate one or two days before the assay. Prior to the assay, the cells are washed once with PBS and then cultured in serum-free media overnight. On the day of the assay, a calcium indicator dye (Calcium 4, Molecular Devices) in assay buffer (HBSS with Ca^2+ and Mg^2+ and containing 20 mM Hepes and 0.3% fatty-acid free human serum albumin) is added to each well and incubation continued for 1 hour at 37° C. 10 μl of test compounds in 2.5% DMSO are added to the cells and incubation continued at room temperature for 30 minutes. Cells are the stimulated by the addition of 10 nM LPA and intracellular Ca^2+ measured using the Flexstation 3 (Molecular Devices). IC50s are determined using Graphpad prism analysis of drug titration curves.

[3] = test system: Female CD-1 mice; experiment: Bleomycin-induced lung fibrosis model in mice; assay type: in vivo; conditions: acute setting (3 day)
Text: Female CD-1 mice (Harlan, 25-30 g) are housed 4 per cage, given free access to food and water and allowed to acclimate for at least 7 days prior to test initiation. After the habituation phase, mice are lightly anesthetized with isoflurane (5% in 100% O2) and administered with bleomycin sulfate (0.01-5 U/kg, Henry Schein) via intratracheal instillation (Cuzzocrea S et al. Am J Physiol Lung Cell Mol. Physiol. 2007 May; 292(5):L1095-104. Epub 2007 Jan. 12.). Mice are returned to their cages and monitored daily for the duration of the experiment. Test compound or vehicle is delivered po, ip or sc daily. The route and frequency of dosing is based on previously determined pharmacokinetic properties. […] BALF is analyzed for concentrations of inflammatory, pro-fibrotic and tissue injury biomarkers including transforming growth factor β1, hyaluronic acid, tissue inhibitor of metalloproteinase-1, matrix matelloproteinase-7, connective tissue growth factor and lactate dehydrogenase activity, using commercially available ELISA. […] Total cell counts are then obtained using a Hemavet hematology system (Drew Scientific, Wayne, Pa.) and differential cells counts are determined using Shandon cytospin (Thermo Scientific, Waltham, Mass.). […] The data are plotted using Graphpad prism and statistical differences between groups determined.

[4] = test system: Female C57BL/6 mice; experiment: Mouse carbon tetrachloride (CCl4)-induced liver fibrosis model; assay type: in vivo; conditions: for collagen deposition in the liver: as compared to the untreated group
Experimental: Female C57BL/6 mice (Harlan, 20-25 g) housed 4/cage are given free access to food and water and allowed to acclimate for at least 7 days prior to test initiation. After the habituation phase, mice receive CCl4 (0.5-1.0 ml/kg body weight) diluted in corn oil vehicle (100 μL volume) via i.p. injection twice a week for 4-6 weeks. (Higazi, A. A. et al., Clin Exp Immunol. 2008 April; 152(1):163-73. Epub 2008 Feb. 14.). Control mice receive an equivalent volume of corn oil vehicle only. Test compound or vehicle is delivered po, ip or sc daily. At the end of the study (4-6 weeks after first i.p. injection of CCl4), mice are sacrificed using inhaled isoflurane and blood is drawn via cardiac puncture for subsequent analysis of ALT/AST levels. The liver is harvested, and one half of the liver is frozen at −80° C. and the other half is fixed in 10% neutral buffered formalin for histological assessment of liver fibrosis using light microscopy (10× magnification). Liver tissue homogenates are analyzed for collagen levels using Sircol (Biocolor Ltd, UK). Fixed Liver tissue is stained using hematoxylin and eosin (H&E) and trichrome and liver fibrosis is determined by quantitative, computer-assisted densitometry of collagen in liver tissue sections using light microscopy. Plasma and liver tissue lysates are also analyzed for concentrations of inflammatory, pro-fibrotic and tissue injury biomarkers including transforming growth factor β1, hyaluronic acid, tissue inhibitor of metalloproteinase-1, matrix matelloproteinase-7, connective tissue growth factor and lactate dehydrogenase activity, using commercially available ELISA. The resulting data are plotted using Graphpad prism and statistical differences between groups determined.

[5] = test system: Female C57BL/6 mice; experiment: Mouse unilateral ureteral obstruction kidney fibrosis model; assay type: in vivo; conditions: as compared to the untreated group
Experimental: Female C57BL/6 mice (Harlan, 20-25 g) housed 4/cage will be given free access to food and water and allowed to acclimate for at least 7 days prior to test initiation. After the habituation phase, mice undergo unilateral ureteral obstruction (UUO) surgery or sham to left kidney. Briefly, a longitudinal, upper left incision is performed to expose the left kidney. The renal artery is located and 6/0 silk thread is passed between the artery and the ureter. The thread is looped around the ureter and knotted 3 times insuring full ligation of ureter. The kidney is returned to abdomen, the abdominal muscle is sutured and the skin is stapled closed. Mice are returned to their cages and monitored daily for the duration of the experiment. Test compound or vehicle is delivered po, ip or sc daily. The route and frequency of dosing is based on previously determined pharmacokinetic properties. All animals are sacrificed using inhaled isoflurane 4, 8 or 14 days after UUO surgery. […] Kidney tissue homogenates are analyzed for collagen levels using Sircol (Biocolor Ltd, UK). Fixed kidney tissue is also stained using hematoxylin and eosin (H&E) and trichrome and kidney fibrosis is determined by quantitative, computer-assisted densitometry of collagen in […] tissue sections using light microscopy. […] The resulting data are plotted using Graphpad prism and statistical differences between groups determined.

[6] = test system: pancreatic cancer cell lines; conditions: cited from earlier work
[7] = test system: highly peritoneal metastatic pancreatic cancer cell line; conditions: cited from earlier work
[8] = cited from earlier work
[9] = test system: Unilateral ureteral obstruction (UUO; animal model of renal fibrosis) mice; conditions: LPA1 (−/−) mice: renal fibrosis significantly attenuated; cited from earlier work

T2 sequence (Q92633 whole entry): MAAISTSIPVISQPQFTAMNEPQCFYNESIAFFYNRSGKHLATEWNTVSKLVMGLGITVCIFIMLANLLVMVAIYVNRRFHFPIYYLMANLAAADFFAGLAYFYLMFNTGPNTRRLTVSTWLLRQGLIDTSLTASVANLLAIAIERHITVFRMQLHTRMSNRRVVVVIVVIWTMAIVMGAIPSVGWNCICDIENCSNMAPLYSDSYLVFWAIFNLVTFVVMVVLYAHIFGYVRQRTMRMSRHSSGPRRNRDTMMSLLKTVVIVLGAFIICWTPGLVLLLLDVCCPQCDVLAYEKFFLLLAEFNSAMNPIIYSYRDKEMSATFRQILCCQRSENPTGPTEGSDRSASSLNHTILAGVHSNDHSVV

SMILES: Cc1noc(-c2ccc(-c3ccc(CC(=O)O)cc3)cc2)c1NC(=O)O[C@H](C)c1ccccc1Cl [Compound 27, (4′-{4-[(R)-1-(2-Chloro-phenyl)-ethoxycarbonylamino]-3-methyl-isoxazol-5-yl}-biphenyl-4-yl)-acetic acid]
tissue inhibitor of metalloproteinase-1 (TIMP-1; pro-fibrotic marker) concentrations in BALF [3]: significantly reduced | effect on collagen deposition compared with pirfenidone ([4]; 30 mg/kg, po, qd): same effect on collagen deposition as pirfenidone | collagen deposition in the liver [4]: significantly reduced | reduction of kidney fibrosis [5]: at least 20%

SMILES: Cc1noc(-c2ccc(-c3ccc(CC(=O)O)cc3)cc2)c1NC(=O)O[C@H](C)c1ccccc1 [Compound 37]
tissue inhibitor of metalloproteinase-1 (TIMP-1; pro-fibrotic marker) concentrations in BALF [3]: reduced | collagen deposition in the liver [4]: significantly reduced | reduction of kidney fibrosis [5]: 55%

SMILES: Cc1noc(-c2ccc(-c3cccc(CC(=O)O)c3)cc2)c1NC(=O)O[C@H](C)c1ccccc1 [Compound 43, {4′-[3-Methyl-4-((R)-1-phenyl-ethoxycarbonylamino)-isoxazol-5-yl]-biphenyl-3-yl}-acetic Acid]
IC50 [2]: 300 to 1000 nM

SMILES: Cc1noc(-c2ccc(-c3ccc(CC(=O)NCCS(=O)(=O)O)cc3)cc2)c1NC(=O)O[C@H](C)c1ccccc1 [Compound 67, 2-(2-{4′-[3-Methyl-4-((R)-1-phenyl-ethoxycarbonylamino)-isoxazol-5-yl]-biphenyl-4-yl}-acetylamino)-ethanesulfonic Acid]
IC50 [2]: < 300 nM

SMILES: Cc1noc(-c2ccc(CSCCC(=O)O)cc2)c1NC(=O)OC(C)c1ccccc1Cl (centres unmarked) [Ki16425]
in vitro migration in response to LPA and peritoneal fluid (ascites) from pancreatic cancer patients [6]: effectively blocked | LPA-induced and ascites-induced invasion activity [7]: blocked | metastasis to bone in vivo [8]: inhibit | development of renal fibrosis in UUO mice [9]: closely resembled the LPA1 (−/−) mice

Next, values leading:

IC50 [1]: 1000 to 50000 nM
SMILES: COc1ccccc1C(C)OC(=O)Nc1c(C)noc1-c1ccc(-c2ccc(CC(=O)O)cc2)cc1 (centres unmarked) [Compound 6, (4′-{4-[1-(2-Methoxy-phenyl)-ethoxycarbonylamino]-3-methyl-isoxazol-5-yl}-biphenyl-4-yl)-acetic Acid]

IC50 [2]: 1000 to 50000 nM
SMILES: COc1ccc(CC(=O)O)cc1-c1ccc(-c2onc(C)c2NC(=O)OC(C)c2ccccc2Cl)cc1 (centres unmarked) [Compound 7, (4′-{4-[1-(2-Chloro-phenyl)-ethoxycarbonylamino]-3-methyl-isoxazol-5-yl}-6-methoxy-biphenyl-3-yl)-acetic Acid]

IC50 [1]: 300 to 1000 nM
SMILES: Cc1noc(-c2ccc(-c3cccc(CC(=O)O)c3)cc2)c1NC(=O)OC(C)c1ccccc1Cl (centres unmarked) [Compound 12, (4′-{4-[1-(2-Chloro-phenyl)-ethoxycarbonylamino]-3-methyl-isoxazol-5-yl}-biphenyl-3-yl)-acetic acid]

IC50 [2]: 1000 to 50000 nM
SMILES: COc1ccc(C(C)OC(=O)Nc2c(C)noc2-c2ccc(-c3ccc(CC(=O)O)cc3)cc2)c(F)c1 (centres unmarked) [Compound 40, (4′-{4-[1-(2-Fluoro-4-methoxy-phenyl)-ethoxycarbonylamino]-3-methyl-isoxazol-5-yl}-biphenyl-4-yl)-acetic acid]
